Measurements published in patent publication US8063242B2, “2-aryl-propionic acids and pharmaceutical compositions containing them” (Dompe PHA.R.MA S.p.A., priority 2001, dated 2011).

How the values were obtained:
CXCR1 = biological target: T1, CXCR1 (Homo sapiens, UniProt P25024); assay: IL-8 induced PMN chemotaxis test; type: cell-based; conditions: for inhibition at 1 µM: compound 10^−6 M, IL-8 induced PMN chemotaxis, IL-8 10^−9 M, read-out: % inhibition (C = 10^−6 M); for inhibition at 0.01 µM: read-out: % of inhibition IL-8 (c = 10^−8 M)
T1 construct: endogenous in cells; host or cells: human polymorphonucleate leukocytes (PMNs) from blood of healthy volunteers
T1 sequence (P25024 1-350): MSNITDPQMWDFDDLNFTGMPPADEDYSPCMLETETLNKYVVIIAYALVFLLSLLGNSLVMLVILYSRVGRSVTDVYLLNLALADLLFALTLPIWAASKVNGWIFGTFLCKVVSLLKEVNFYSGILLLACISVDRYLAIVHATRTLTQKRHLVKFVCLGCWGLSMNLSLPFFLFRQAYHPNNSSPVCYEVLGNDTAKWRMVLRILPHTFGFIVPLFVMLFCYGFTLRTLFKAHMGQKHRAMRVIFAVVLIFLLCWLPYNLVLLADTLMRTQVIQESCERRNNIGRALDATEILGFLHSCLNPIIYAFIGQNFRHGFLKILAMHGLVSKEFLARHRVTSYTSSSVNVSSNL
Description: (§1) The compounds of the invention of formula (I) were evaluated in vitro for their ability to inhibit chemotaxis of polymorphonucleate leukocytes (hereinafter referred to as PMNs) and monocytes induced by the fractions of IL-8 and GRO-α. For this purpose, in order to isolate the PMNs from heparinized human blood, taken from healthy adult volunteers, mononucleates were removed by means of sedimentation on dextran (according to the procedure disclosed by W. J. Ming et al., J. Immunol., 138, 1469, 1987) and red blood cells by a hypotonic solution. The cell vitality was calculated by exclusion with Trypan blue, whilst the ratio of the circulating polymorphonucleates was estimated on the cytocentrifugate after staining with Diff Quick.
Human recombinant IL-8 (Pepro Tech) was used as stimulating agents in the chemotaxis experiments, giving practically identical results: the lyophilized protein was dissolved in a volume of HBSS containing 0.2% bovin serum albumin (BSA) so thus to […]
(§2) During the chemotaxis assay (according to W. Falket et al., J. Immunol. Methods, 33, 239, 1980) PVP-free filters with a porosity of 5 μm and microchambers suitable for replication were used.
(§3) The compounds of the invention in formula (I) were evaluated at a concentration ranging between 10^−6 and 10^−10 M; for this purpose they were added, at the same concentration, both to the lower pores and the upper pores of the microchamber. Evaluation of the ability of the compounds of the invention of formula (I) to inhibit IL-8-induced chemotaxis of human monocytes was carried out according to the method disclosed by Van Damme J. et al. (Eur. J. Immunol., 19, 2367, 1989).

CXCR2 = biological target: T2, CXCR2 (Homo sapiens, UniProt P25025); assay: GRO-α induced PMN chemotaxis test; type: cell-based; conditions: compound 10^−8 M, PMN chemotaxis induced by GRO-α; for inhibition at 0.01 µM: read-out: % of inhibition GRO-α (c = 10^−8 M)
T2 construct: endogenous in cells; host or cells: human polymorphonucleate leukocytes (PMNs) from blood of healthy volunteers
T2 sequence (P25025 1-360): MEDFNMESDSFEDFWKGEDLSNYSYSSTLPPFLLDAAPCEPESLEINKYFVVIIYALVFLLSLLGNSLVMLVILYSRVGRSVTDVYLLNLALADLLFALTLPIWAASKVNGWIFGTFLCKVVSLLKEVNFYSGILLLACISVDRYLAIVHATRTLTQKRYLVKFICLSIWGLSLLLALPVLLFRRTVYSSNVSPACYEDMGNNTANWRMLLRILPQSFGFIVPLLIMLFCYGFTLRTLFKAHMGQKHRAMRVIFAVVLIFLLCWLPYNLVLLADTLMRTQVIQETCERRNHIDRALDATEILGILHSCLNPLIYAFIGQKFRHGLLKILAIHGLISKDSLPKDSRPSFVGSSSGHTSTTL
Description: as §1, §2, §3
In the table below, biological activities of compounds showing high potency in the inhibition of PMN chemotaxis induced as by IL-8 as by the selective CXCR2 agonist GRO-α are reported.

[1] = compound 10^−8 M, PMN chemotaxis induced by IL-8

Row | Compound | inhibition at 1 µM (CXCR1) | inhibition at 0.01 µM (CXCR1; [1]) | inhibition at 0.01 µM (CXCR2) | further results
1 | C[C@@H](C(=O)O)c1ccc(NS(=O)(=O)c2ccccc2)cc1 [Example 27] | – | – | – | % of inhibition IL-8 (c = 10^−8 M) (CXCR1; [1]): 49 ± 11%; % of inhibition GRO-α (c = 10^−8 M) (CXCR2): 33 ± 11+ %
2 | C[C@@H](C(=O)O)c1ccc(NS(=O)(=O)c2ccccc2Cl)cc1 [Example 32, (R) 2-[4′-(2″-chloro)benzenesulfonylamino]phenylpropionic acid] | – | -2 ± 10% | 66 ± 10% | –
3 | C[C@@H](C(=O)O)c1ccc(OS(=O)(=O)Cc2ccccc2)cc1 [Example 36, (R) 2-(4′-benzylsulfonyloxy)phenylpropionic acid] | – | 59 ± 11% | 25 ± 11% | –
4 | CC(C(=O)O)c1ccccc1Nc1c(Cl)cccc1Cl (racemic) [Example 18, (R,S) 2-[2′-(2″,6″-dichlorophenyl)aminophenylpropionic acid] | 52 ± 3% | – | – | –
5 | CCc1ccccc1S(=O)(=O)Nc1ccc([C@@H](C)C(=O)O)cc1 [Example 33, (R) 2-[4′-(2″-ethyl)benzenesulfonylamino]phenylpropionic acid] | – | 44 ± 14% | 80 ± 10% | –
6 | CC(C)S(=O)(=O)Nc1ccc([C@@H](C)C(=O)O)cc1 [Example 29, (R) 2-[4′-(2″-propane)sulfonylamino]phenylpropionic acid] | – | 54 ± 14% | 44 ± 12% | –
7 | C[C@@H](C(=O)O)c1ccc(NS(=O)(=O)C(F)(F)F)cc1 [Example 30, (R) 2-(4′-trifluoromethanesulfonylamino)phenylpropionic acid] | – | 8 ± 10% | 40 ± 14% | –
8 | C[C@@H](C(=O)O)c1ccc(NS(=O)(=O)Cc2ccccc2)cc1 [Example 31, (R) 2-(4′-benzylsulfonylamino)phenylpropionic acid] | – | 60 ± 10% | 24 ± 8% | –
9 | C[C@H](C(=O)O)c1ccccc1Nc1c(Cl)cccc1Cl [Example 20] | 50 ± 7% | – | – | –
10 | CC(C)c1cccc([C@H](C)C(=O)O)c1 [Example 14, (S)-2-[(3′-isopropyl)phenyl]-propionic acid] | 50 ± 9% | – | – | –
11 | C[C@@H](C(=O)O)c1ccc(OS(=O)(=O)c2ccccc2Cl)cc1 [Example 39, (R) 2-[4′-(2″-chloro)benzenesulfonyloxy]phenylpropionic acid] | – | 25 ± 7% | 65 ± 10% | –
12 | CC(C(=O)O)c1cccc(C(C)c2ccccc2)c1 (stereo not drawn) [Example 7] | 54 ± 4% | – | – | –
13 | C[C@@H](C(=O)O)c1ccc(NS(N)(=O)=O)cc1 [Example 34, (R) 2-(4′-aminosulfonylamino)phenylpropionic acid] | – | 55 ± 10% | 2 ± 5% | –
14 | CC(C(=O)O)c1ccccc1Oc1c(Cl)cccc1Cl (racemic) [Example 25, (R,S) 2-[2′-(2″,6″-dichloro)phenoxy]phenylpropionic acid] | 41 ± 9% | – | – | –

Second part, led by results:

Row | inhibition at 1 µM (CXCR1) | inhibition at 0.01 µM (CXCR1; [1]) | inhibition at 0.01 µM (CXCR2) | Compound | further results
15 | 58 ± 2% | – | – | CCC(CC)c1cccc(C(C)C(=O)O)c1 (racemic) [Example 6, (R,S) 2-[3′-(alpha-ethyl-propyl)phenyl]propionic acid] | –
16 | 57 ± 6% | – | – | CC(O)c1cccc(C(C)C(=O)O)c1 [Example 16, (R,S), (R,S) 2-[3′-(alpha-hydroxy-ethyl)phenyl]propionic acid] | –
17 | – | 48 ± 7% | 45 ± 7% | C[C@@H](C(=O)O)c1ccc(CS(=O)(=O)C(F)(F)F)cc1 [Example 43, (R) 2-(4′-trifluoromethanesulfonylmethyl)phenylpropionic acid] | –
18 | 46 ± 14% | – | – | C[C@@H](C(=O)O)c1ccccc1Nc1c(Cl)cccc1Cl [Example 19] | –
19 | – | 45 ± 13% | 70 ± 10% | CCc1ccccc1S(=O)(=O)Oc1ccc([C@@H](C)C(=O)O)cc1 [Example 40, (R) 2-[4′-(2″-ethyl)benzenesulfonyloxy]phenylpropionic acid] | –
20 | – | 60 ± 7% | 52 ± 5% | C[C@@H](C(=O)O)c1ccc(CS(=O)(=O)c2ccccc2)cc1 [Example 42, (R) 2-(4′-benzenesulfonylmethyl)phenylpropionic acid] | –
21 | – | 65 ± 10% | 5 ± 7% | C[C@@H](C(=O)O)c1ccc(OS(N)(=O)=O)cc1 [Example 41, (R) 2-(4′-aminosulfonyloxy)phenylpropionic acid] | –
22 | 43 ± 18% | – | – | CC(C)c1cccc([C@@H](C)C(=O)O)c1 [Example 10, (R)-2-[(3′-isopropyl)phenyl]-propionic acid] | –
23 | 51 ± 12% | – | – | CC(C)c1cccc(C(C)C(=O)O)c1 (stereo not drawn) [Example 5, 2-[(3′-isopropyl)phenyl]propionic acid] | –
24 | – | 25 ± 7% | 32 ± 5% | C[C@@H](C(=O)O)c1ccc(NS(C)(=O)=O)cc1 [Example 28, (R) 2-(4′-methanesulfonylamino)phenylpropionic acid] | –
25 | – | 62 ± 7% | 59 ± 10% | C[C@@H](C(=O)O)c1ccc(OS(=O)(=O)C(F)(F)F)cc1 [Example 37, (R) 2-(4′-trifluoromethanesulfonyloxy)phenylpropionic acid] | –
26 | – | 49 ± 8% | 46 ± 6% | CC(C)S(=O)(=O)Oc1ccc([C@@H](C)C(=O)O)cc1 [Example 38, (R) 2-[4′-(2″-propane)sulfonyloxy]phenylpropionic acid] | –
